“Also recorded” adds a separate entry of the source.
Legend:
[1] = tested on: mouse oligodendrocyte progenitor cells (OPCs); assay: Mouse OPC differentiation with IRX4204 and T3; format: cell-based; conditions: 5-day treatment, 96-well plates
Protocol: OPCs were derived from plp-EGFP expressing mice.
Therapeutic agents were tested in 96-well plates (6 wells per concentration). […] All media contained 0.1% DMSO. At the end of the 5-day treatment, cells were imaged on Cellomics in two channels and algorithms were used to count nuclei and EGFP+oligodendrocytes.

RXRα = biological target: T1, RXRα (Homo sapiens, UniProt P19793); conditions: transactivation assays
T1 sequence (P19793 1-462): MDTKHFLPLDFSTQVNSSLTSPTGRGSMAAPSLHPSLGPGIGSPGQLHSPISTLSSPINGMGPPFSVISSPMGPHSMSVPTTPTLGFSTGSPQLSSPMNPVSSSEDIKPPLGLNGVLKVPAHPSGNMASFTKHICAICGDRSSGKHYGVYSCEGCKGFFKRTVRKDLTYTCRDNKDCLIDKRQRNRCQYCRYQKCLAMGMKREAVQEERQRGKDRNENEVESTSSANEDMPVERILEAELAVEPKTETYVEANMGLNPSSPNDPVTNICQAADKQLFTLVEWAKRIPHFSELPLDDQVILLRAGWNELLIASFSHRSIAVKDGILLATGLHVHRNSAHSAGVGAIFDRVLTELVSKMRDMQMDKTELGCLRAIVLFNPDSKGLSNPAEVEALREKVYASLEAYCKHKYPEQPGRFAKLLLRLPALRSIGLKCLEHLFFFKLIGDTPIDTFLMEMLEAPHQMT
Protocol: To determine whether a RXR agonist can mediate its effects via RXRα receptor homodimers, RXRβ receptor homodimers, RXRγ receptor homodimers, or any combination thereof, or the corresponding RAR/RXR heterodimers, receptor-mediated transactivation assays were performed. For transactivation assays assessing RXR homodimer signaling, CV-1 cells were transfected with 1) an expression construct including a full length RXRα, RXRβ, or RXRγ; and 2) a rCRBPII/RXRE-tk-Luc reporter construct that included RXR homodimer-specific RXRE/DR1 responsive element linked to a luciferase gene. For transactivation assays assessing RAR/RXR heterodimer signaling, CV-1 cells were transfected with 1) an expression construct comprising a fusion protein including an estrogen receptor (ER) DNA binding domain linked to the ligand binding domain of RARα, RARβ, or RARγ and 2) a ERE-tk-Luc reporter construct that included an estrogen receptor responsive element linked to a luciferase gene. […] Data are mean values±SE from five independent experiments.

Nurr1/RXR heterodimer = Nurr1/RXR heterodimer (Homo sapiens, UniProt P19793); assay: Nurr1/RXR transactivation assay (COS 7 cells, NBRE-tk-luc); format: cell-based; conditions: Nurr-1 with or without RXRα
From the text: (§1) For PPARγ: CV-1 cells were transfected with 3×(rAOX/DR1)-tk-Luc reporter gene and an expression vector for PPARγ. For FXR:CV-1 cells were transfected with 3×(IBABP/IRI)-tk-Luc reporter gene and vectors for FXR and RXRα. For LXR:CV-1 cells were transfected with 3×(PLTP/LXRE)-tk-Luc reporter gene with vectors for LXRα or LXRβ. For Nurr1: COS 7 cells were transfected with 3×NBRE-tk-luc reporter gene and full length Nurr-1 with or without full-length RXRα plasmid. […] Luciferase data were normalized to co-transfected β-gal activity. Luciferase activity was expressed as percent of maximal activity obtained using specific agonists. Rosiglitazone (PPARγ), GW4064 (FXR), T0901317 (LXR).

LXRβ/RXR = LXRβ/RXR transactivation assay (CV-1 cells); format: cell-based; conditions: 20 hr; relative to T0901317
From the text: as §1

[2] = tested on: CNS infiltrating leukocytes in EAE C57BL/6 (B6) mice; assay: CNS infiltrating cells in EAE B6 mice (FACS); format: in vivo; conditions: day 20 after immunization, vs vehicle control
Protocol: To determine whether a RXR agonist can reduce central nervous system (CNS) infiltrating cells, C57BL/6 (B6) mice were treated as described in Example 6. On day 20 after immunization, mice were sacrificed and perfused with phosphate buffered saline (PBS). Brain and spinal cord tissue was isolated, digested with DNase and LIBERASE DL® (Roche Diagnostics, Indianapolis, Ind.) for 30 minutes, and homogenized through 70 micron nylon mesh filters. Resulting cells were placed over a Percoll gradient to remove myelin. The remaining cells (microglia and CNS infiltrating cells) were counted, stained for molecules of interest, and run on a flow cytometer. Based on the frequencies obtained by FACS of these cell populations, total cell numbers of CNS infiltrating leukocytes expressing CD45, including CD4^+ T cells and CD11c^+ CD11b^+ myeloid dendritic cells (DC), were calculated.

[3] = tested on: cuprizone+rapamycin (CR) demyelination in C57BL/6J mice
From the text: Animals (8 week-old male C57BL/6J mice) were subjected to cuprizone diet plus rapamycin injections (CR) for 6 weeks to induce demyelination. […] All animals were sacrificed after 6 weeks of CR to evaluate axonal integrity and microglial/macrophage activity in the white matter (corpus callosum, CC).
A total of 50 animals were included in the study, where 43 animals received CR demyelination for 6 weeks. During demyelination, a subset (n=7) of animals were kept on normal diet to serve as naïve age-matched controls.
To assess thyroid hormone levels, terminal blood draws were taken to quantify the levels of T4.

EAE in SJL mice = EAE in SJL mice (PLP peptide); format: in vivo
Protocol: To determine whether a RXR agonist can attenuate multiple sclerosis, SJL mice were immunized to induce EAE by s.c. injection at the base of their spine with 200 μL of adjuvant containing 200 μg proteolipid proteins (139-151) (PLP peptide; Peptides International, Louisville, Ky.) and 400 μg of non-viable M. tuberculosis H37 desiccate emulsified in a mixture of incomplete Freund's adjuvant and PBS. Mice were also given 150 ng of pertussis toxin in PBS i.p. on the same day as PLP emulsion injection and 2 days later. […] Mice were scored using the scale described in Example 3.

[4] = tested on: experimental autoimmune encephalomyelitis (EAE) in C57BL/6 (B6) mice; assay: EAE in B6 mice (MOG peptide), disease severity score; format: in vivo; conditions: IRX4204 50 μg every other day from day 7 to day 20; vs vehicle
Protocol: Mice were also given 200 ng of pertussis toxin in PBS administered by inter-peritoneal (i.p.) injection on the same day as MOG emulsion injection (day 0) and 2 days later (day 2). […] Mice were scored using the following scale: 0—Mice have no disease, 1—Mice have distal limp tail or rear leg weakness (paresis), 1.5—Mice have distal limp tail and rear leg weakness, 2—Mice have complete limp tail and rear leg weakness, 2.5—Mice have complete limp tail and weakness in both rear legs, 3—Mice have complete limp tail and paralysis in both rear legs, 3.5—Mice have complete limp tail, paralysis in both rear legs, and forelimb weakness. Mice receiving a score of 3.5 were immediately euthanized.

[5] = tested on: focal demyelination of caudal cerebellar peduncles in rats; assay: Ethidium bromide focal demyelination in one year old rats; format: in vivo; conditions: IRX4204 10 mg/kg/day oral, thyroxine 20 ng/g s.c., day 7 to 21
Protocol: The experiment uses rats of relatively advanced age (1 year) since such rats undergo remyelination in a less efficient manner, thereby providing data that are more relevant to the clinical treatment of human patients with multiple sclerosis or other demyelination disorders.
Focal demyelination is induced in one year old rats (approximately 300 g in weight) by injecting stereotactically 5 μl of ethidium bromide solution (0.01% vol/vol in saline) in a bilateral manner into the caudal cerebellar peduncles (CCP). […] The rats are killed on day 24 post-ethidium bromide treatment for analysis of remyelination by quantitative polymerase chain reaction (qPCR) and microscopy.

[6] = tested on: cuprizone+rapamycin demyelination in C57BL/6J mice; assay: Cuprizone/rapamycin 12-week demyelination, 6-week remyelination treatment; format: in vivo
From the text: All animals were sacrificed after 12 weeks of CR or after further 6 weeks of treatment to evaluate myelin in white matter (corpus callosum) and gray matter (hippocampus and cortex). In addition, the size of myelinated axons was quantified and the large myelinated axons were further assessed by 3D-electron microscopy (3D-EM). A total of 40 animals were included in the study, where all 40 animals received CR demyelination for 12 weeks. After demyelination, a subset (n=10) of animals are sacrificed to serve as controls to assess baseline demyelination. […] Floating brain sections are immunostained with myelin prolipid protein (PLP) to visualize and quantify myelin in gray matter, hippocampus (FIG. 16A) and cortex (FIG. 16B).

LXRα/RXR = LXRα/RXR transactivation assay (CV-1 cells); format: cell-based; conditions: 20 hr; relative to T0901317
From the text: as §1

EAE in B6 mice = assay: EAE dose titration in B6 mice with spleen and CNS flow analysis; format: in vivo
Protocol: A dose titration experiment was also conducted in EAE mice. EAE was induced in 28 B6 mice with MOG/CFA and PT as above. Mice were scored on day 7 as indicated above and divided into groups by score so means are as equal as possible.
At the completion of the experiment, the vehicle control and 200 μg/day groups were euthanized and spleen and CNS samples obtained.

[7] = tested on: oligodendrocyte precursor cells (OPCs); assay: OPC differentiation into oligodendrocytes (PLP-EGFP, Example 7); format: cell-based, mouse; conditions: compared to negative control (DMSO)
From the text: OPCs were generated from a neurosphere culture of E14.5 PLP-EGFP (on C57BL/6J background) mouse brains. […] The EGFP expressing cells were quantified with Cellomics Neuronal Profiling Algorithm.
The EGFP expressing cells in controls and all compounds were quantified with Cellomics Neuronal Profiling Algorithm.

[8] = CNS, restimulation with PMA/Ionomycin, 200 μg/day vs vehicle

Sequence of Nurr1/RXR heterodimer (P43354 whole entry partner, one chain of several): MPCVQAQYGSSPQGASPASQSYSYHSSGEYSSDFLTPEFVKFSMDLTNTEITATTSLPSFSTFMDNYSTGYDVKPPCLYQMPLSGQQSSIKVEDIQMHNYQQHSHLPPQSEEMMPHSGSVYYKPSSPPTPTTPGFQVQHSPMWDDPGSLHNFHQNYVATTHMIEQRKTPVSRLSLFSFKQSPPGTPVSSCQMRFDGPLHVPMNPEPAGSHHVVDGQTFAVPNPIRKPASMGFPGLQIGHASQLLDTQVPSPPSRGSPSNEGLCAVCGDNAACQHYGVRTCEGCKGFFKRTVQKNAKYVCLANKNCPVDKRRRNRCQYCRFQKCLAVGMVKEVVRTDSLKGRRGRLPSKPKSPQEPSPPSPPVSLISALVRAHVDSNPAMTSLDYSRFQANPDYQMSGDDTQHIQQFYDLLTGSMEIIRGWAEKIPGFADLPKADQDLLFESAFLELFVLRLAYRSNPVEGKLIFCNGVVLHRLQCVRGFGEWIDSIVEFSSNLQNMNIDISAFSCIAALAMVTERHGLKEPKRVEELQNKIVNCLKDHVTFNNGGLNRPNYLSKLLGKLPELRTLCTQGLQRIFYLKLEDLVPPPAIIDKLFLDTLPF

Structure (SMILES): N[C@@H](Cc1cc(I)c(Oc2ccc(O)c(I)c2)c(I)c1)C(=O)O [Compound T3, triiodothyronine, reference compound]
- oligodendrocyte production (EGFP+ oligodendrocytes) [1]: clear dose-responses

Structure (SMILES): CC(/C=C/[C@@H]1C[C@]1(C)c1ccc2c(c1)C(C)(C)CCC2(C)C)=C\C(=O)O [IRX4204, 3,7-dimethyl-6(S),7(S)-methano,7-[1,1,4,4-tetramethyl-1,2,3,4-tetrahydronaphth-7-yl]2(E),4(E) heptadienoic acid]
- more potent in activating RXR receptors rather than RAR receptors (RXRα): > 1,000 fold
- activation of Nurr1/RXR heterodimer (Nurr1/RXR heterodimer): selectively activates the Nurr1/RXR permissive heterodimer; also recorded: selectively activates RXR-Nurr1 heterodimers
- activation of LXRβ/RXR (LXRβ/RXR): not to transactivate; also recorded: does not activate
- infiltration of CD4+ cells in to the CNS [2]: significant reduction
- infiltration of CD11c+ CD11b+ cells (myeloid DC) in to the CNS [2]: significant reduction
- microglial/macrophage activation (Iba1 staining in CC) ([3]; 6 weeks concurrent treatment, vs vehicle): no difference
- terminal body weights ([3]; ANOVA, vs vehicle): no significant difference
- number of SMI32 positive axonal ovoids in the corpus callosum ([3]; IRX4204 10 mg/kg PO, T4 20 ng/g SQ daily for 6 weeks during CR, vs Vehicle, 10 mg/kg): trend towards decreased number of axonal ovoids but was not statistically different from the Vehicle; also recorded: trend towards decrease in axonal ovoids, but it was statistically not different from vehicle
- mortality during the in-life phase ([3]; mouse, in vivo): no mortality
- decrease in T4 levels compared to vehicle control animals ([3]; terminal blood draws): ~50%
- symptoms of EAE (disease severity score) (EAE in SJL mice; 50 μg i.p. every other day from day 7 to day 14): significantly reduces the symptoms of EAE
- Death from Disease (EAE in SJL mice; 50 μg i.p. every other day, n=6): 0/6
- symptoms of EAE (disease severity score) [4]: significantly reduces the symptoms of EAE
- oligodendrocyte production (EGFP+ oligodendrocytes) [1]: clear dose-responses
- Mbp expression (real-time qPCR of lesion samples) [5]: increase
- Pdgfra expression (real-time qPCR of lesion samples) [5]: increase
- remyelinated axons (ultrastructural analyses of CCP lesions) [5]: more remyelinated axons than vehicle treatment
- Nkx2.2+ oligodendrocyte precursor cells (OPCs) in lesions ([5]; vs vehicle): increased
- density of CC1+ differentiated oligodendrocytes in lesions ([5]; vs vehicle): increased
- density of Olig2+ oligodendrocyte lineage cells in lesions ([5]; vs vehicle): increased
- body weight ([6]; 10 mg/kg PO daily for 6 weeks after 12 weeks CR): no significant difference
- size of myelinated axons in the corpus callosum ([6]; 6 weeks of treatment after 12 weeks CR): significantly increases; also recorded: shift in distribution to larger axon diameter
- size of axons in the upper quartile ([6]; 6 weeks of treatment, 3rd quartile, axons about 0.7 μm, P<0.0001): significant increase
- activation of LXRα/RXR (LXRα/RXR): not to transactivate; also recorded: does not activate
- EAE disease overall (EAE in B6 mice; 50 μg, 100 μg, or 200 μg every day from day 8, vs vehicle): significantly less disease overall
- Co-expression of IFNg and IL-17A by CD4 T cells in CNS (EAE in B6 mice; CNS, 200 μg/day vs vehicle): not significantly different between groups
- total number of infiltrating CD4 T cells in the CNS (EAE in B6 mice; CNS, 200 μg/day vs vehicle): reduced
- IFNγ production by CNS infiltrating lymphocytes (EAE in B6 mice; [8]): significantly reduced
- TNF production by CNS infiltrating lymphocytes (EAE in B6 mice; [8]): significantly reduced
- CCR6 expression on CD4 T cells (EAE in B6 mice; spleen, 200 μg/day vs vehicle): lowered CCR6
- CD4+ CD25hi cells (number) (EAE in B6 mice; spleen, 200 μg/day vs vehicle): reduced
- CD4+ CD25hi cells frequency (EAE in B6 mice; spleen, 200 μg/day vs vehicle): not altered
- CD49d expression on CD4 T cells (EAE in B6 mice; spleen, 200 μg/day vs vehicle): but not CD49d
- total number of effector and memory CD4 T cells (CD44 expression) (EAE in B6 mice; spleen, 200 μg/day vs vehicle): decreased
- total number of recently activated CD4 T cells (CD69 and CD44) (EAE in B6 mice; spleen, 200 μg/day vs vehicle): also decreased
- OPC differentiation into oligodendrocytes (number of EGFP positive cells) [7]: significant increase; also recorded: dose dependent increase

From patent US10092535B2, “Treatment of nervous system disorders using combinations of RXR agonists and thyroid hormones” (IO Therapeutics, Inc., priority 2015, dated 2018)
